The numbers were not newly measured in patent US6342486B1, “Polymer glucan ether derivatives, their manufacturing as well as their use” (Mibelle AG Cosmetics, priority 1996, dated 2002), which cites them from elsewhere.

The conditions of the data set: isolated glucan from yeast cells.

Turning to 1,3-beta-polyglucose [glucan], the “solubility in aqueous systems” value was “extremely low solubility”.
